# Calls of active or inactive are those of the source.
# Assays:
# [1] = target: Cytochrome P450 3A4 (Homo sapiens, UniProt P08684);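 also: CYP3A4 tested as one member of a cytochrome P450 panel screen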
# [2] = target: Luciferin 4-monooxygenase (Photinus pyralis, UniProt P08659); assay: inhibition of purified Photinus pyralis luciferase – biochemical, luminescence, dose response (AID 1891)
# [3] = Luminescence Cell-Based Dose Confirmation HTS to Identify Inhibitors of Platelet Dense Granule Release. [Related pubchem assays: 1663 (Primary HTS), 1678 (Summary of Project)]; format: functional
# [4] = target: T1, Protein RecA (Mycobacterium tuberculosis, UniProt P9WHJ3); assay: Fluorescence Cell-Free Homogeneous Dose Retest to Identify Inhibitors of RecA-Intein Splicing Activity. [Related pubchem assays (depositor defined):AID2097, AID2223, AID489010, AID492950]; format: functional
# T1 sequence (P9WHJ3 whole entry): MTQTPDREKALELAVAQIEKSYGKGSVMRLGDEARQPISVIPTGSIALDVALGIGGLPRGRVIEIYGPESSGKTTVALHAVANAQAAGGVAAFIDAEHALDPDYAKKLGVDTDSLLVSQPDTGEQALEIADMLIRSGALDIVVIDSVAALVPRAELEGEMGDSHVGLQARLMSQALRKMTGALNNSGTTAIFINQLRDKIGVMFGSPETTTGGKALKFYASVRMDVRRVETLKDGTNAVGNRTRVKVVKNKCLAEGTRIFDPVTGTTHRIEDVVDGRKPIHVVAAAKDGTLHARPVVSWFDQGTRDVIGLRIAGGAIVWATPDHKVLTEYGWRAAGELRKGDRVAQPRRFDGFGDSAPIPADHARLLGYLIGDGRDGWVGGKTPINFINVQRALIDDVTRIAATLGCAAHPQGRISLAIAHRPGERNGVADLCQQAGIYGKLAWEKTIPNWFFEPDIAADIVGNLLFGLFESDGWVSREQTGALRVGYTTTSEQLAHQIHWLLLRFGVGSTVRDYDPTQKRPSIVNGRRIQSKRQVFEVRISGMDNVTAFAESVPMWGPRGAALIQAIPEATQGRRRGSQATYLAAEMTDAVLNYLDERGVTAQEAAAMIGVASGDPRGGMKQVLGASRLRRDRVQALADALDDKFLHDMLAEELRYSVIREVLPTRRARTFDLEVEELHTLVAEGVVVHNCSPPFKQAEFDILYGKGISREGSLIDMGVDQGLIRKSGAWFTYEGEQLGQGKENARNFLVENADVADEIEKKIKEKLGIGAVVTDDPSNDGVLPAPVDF
# [5] = target: T2, Replicative DNA helicase DnaB (Mycobacterium tuberculosis, UniProt P9WMR3); assay: DnaB intein splicing inhibitors, dose response, biochemical, cell-free fluorescence (AID 449749); format: functional
# T2 sequence (P9WMR3 whole entry): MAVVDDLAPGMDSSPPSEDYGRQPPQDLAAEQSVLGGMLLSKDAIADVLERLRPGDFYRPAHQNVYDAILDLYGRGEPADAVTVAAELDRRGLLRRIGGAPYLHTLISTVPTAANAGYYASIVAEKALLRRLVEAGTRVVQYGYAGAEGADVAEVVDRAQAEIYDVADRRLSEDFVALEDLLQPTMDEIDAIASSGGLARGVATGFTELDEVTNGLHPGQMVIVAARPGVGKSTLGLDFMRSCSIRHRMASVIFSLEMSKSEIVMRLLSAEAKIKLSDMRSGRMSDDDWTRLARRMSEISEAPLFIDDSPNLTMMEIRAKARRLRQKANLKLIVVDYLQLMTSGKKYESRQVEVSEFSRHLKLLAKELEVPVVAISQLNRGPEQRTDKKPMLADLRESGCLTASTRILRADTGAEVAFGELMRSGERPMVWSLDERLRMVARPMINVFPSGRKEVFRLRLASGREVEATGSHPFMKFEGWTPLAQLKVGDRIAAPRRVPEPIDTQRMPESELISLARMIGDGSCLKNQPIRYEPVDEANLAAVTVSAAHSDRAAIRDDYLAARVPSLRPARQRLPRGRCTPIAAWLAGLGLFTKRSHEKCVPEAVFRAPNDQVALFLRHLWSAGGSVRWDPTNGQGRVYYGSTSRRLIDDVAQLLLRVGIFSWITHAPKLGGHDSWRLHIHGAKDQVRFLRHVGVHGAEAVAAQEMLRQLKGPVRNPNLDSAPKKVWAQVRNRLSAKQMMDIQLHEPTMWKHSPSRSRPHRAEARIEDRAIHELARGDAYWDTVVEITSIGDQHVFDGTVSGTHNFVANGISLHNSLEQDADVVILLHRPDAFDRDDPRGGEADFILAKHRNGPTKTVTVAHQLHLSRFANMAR
# [6] = target: T3, Cytochrome P450 1A2 (Homo sapiens, UniProt P05177);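 also: PubChem cytochrome P450 panel assay, CYP1A2 panel member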
# T3 sequence (P05177 whole entry): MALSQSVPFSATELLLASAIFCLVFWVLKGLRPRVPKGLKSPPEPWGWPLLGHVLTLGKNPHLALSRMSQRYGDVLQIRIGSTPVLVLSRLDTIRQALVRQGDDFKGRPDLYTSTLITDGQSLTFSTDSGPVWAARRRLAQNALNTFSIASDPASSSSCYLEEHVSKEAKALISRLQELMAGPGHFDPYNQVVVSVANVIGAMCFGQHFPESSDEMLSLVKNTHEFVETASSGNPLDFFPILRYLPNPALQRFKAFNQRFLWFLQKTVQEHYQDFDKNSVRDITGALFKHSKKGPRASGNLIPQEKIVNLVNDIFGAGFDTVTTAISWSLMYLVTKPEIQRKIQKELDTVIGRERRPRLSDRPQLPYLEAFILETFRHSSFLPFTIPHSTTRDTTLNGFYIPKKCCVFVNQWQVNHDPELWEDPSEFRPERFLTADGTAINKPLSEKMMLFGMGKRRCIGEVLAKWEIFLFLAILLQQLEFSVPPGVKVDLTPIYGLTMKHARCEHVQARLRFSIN
# [7] = target: Cytochrome P450 2C19 (Homo sapiens, UniProt P33261); assay: Cytochrome panel assay with activity outcomes. Panel member name: p450-cyp2c19 Compounds with AC50 equal or less than 10 uM are considered active; format: functional; settings: read-out: AC50
# Sequence of Cytochrome P450 2C19 (P33261 whole entry): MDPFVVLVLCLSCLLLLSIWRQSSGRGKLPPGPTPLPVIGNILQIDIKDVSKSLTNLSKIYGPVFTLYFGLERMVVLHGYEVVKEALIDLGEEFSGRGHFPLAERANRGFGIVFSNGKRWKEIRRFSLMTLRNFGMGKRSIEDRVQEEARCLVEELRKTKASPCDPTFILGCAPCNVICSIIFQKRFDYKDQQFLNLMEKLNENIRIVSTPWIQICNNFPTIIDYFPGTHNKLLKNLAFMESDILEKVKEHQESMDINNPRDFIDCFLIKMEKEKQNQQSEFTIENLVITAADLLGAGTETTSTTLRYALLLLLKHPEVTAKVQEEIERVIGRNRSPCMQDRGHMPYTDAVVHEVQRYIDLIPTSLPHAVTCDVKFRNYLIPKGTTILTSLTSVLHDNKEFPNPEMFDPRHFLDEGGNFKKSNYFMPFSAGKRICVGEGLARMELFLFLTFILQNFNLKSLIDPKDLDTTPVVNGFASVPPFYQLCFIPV
# [8] = Trypanosoma cruzi growth suppression in host cells – NIH3T3 host cells, beta-gal luminescence, confirmation (AID 2044); format: functional, cell-based;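 also: intracellular parasites grown in NIH/3T3 mouse fibroblasts as host cells; luminescent beta-galactosidase reporter signal from transgenic T. cruzi replicating inside host cells; inhibitors lower the luminescence signal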
# [9] = NIH3T3 cell viability loss – ATP luminescence, mouse fibroblasts, counter-screen, dose response (AID 2010); format: functional, cell-based;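 also: cells exposed to compound for about 90 hours before reading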
# Sequence of Luciferin 4-monooxygenase (P08659 whole entry): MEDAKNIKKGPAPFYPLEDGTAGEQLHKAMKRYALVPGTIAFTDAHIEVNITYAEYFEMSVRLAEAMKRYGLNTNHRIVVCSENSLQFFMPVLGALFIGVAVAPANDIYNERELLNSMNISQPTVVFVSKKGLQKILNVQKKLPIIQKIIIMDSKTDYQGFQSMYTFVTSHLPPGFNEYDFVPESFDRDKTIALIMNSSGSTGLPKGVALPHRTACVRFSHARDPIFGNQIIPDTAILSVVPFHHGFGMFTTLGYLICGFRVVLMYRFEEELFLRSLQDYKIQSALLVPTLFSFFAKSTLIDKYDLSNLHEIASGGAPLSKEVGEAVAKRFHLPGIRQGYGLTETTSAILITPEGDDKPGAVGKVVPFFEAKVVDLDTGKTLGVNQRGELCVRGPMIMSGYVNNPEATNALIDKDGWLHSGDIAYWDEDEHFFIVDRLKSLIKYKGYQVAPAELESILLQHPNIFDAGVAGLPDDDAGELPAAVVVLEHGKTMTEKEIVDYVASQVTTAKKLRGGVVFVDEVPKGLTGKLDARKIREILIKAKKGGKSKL
# Sequence of Cytochrome P450 3A4 (P08684 whole entry): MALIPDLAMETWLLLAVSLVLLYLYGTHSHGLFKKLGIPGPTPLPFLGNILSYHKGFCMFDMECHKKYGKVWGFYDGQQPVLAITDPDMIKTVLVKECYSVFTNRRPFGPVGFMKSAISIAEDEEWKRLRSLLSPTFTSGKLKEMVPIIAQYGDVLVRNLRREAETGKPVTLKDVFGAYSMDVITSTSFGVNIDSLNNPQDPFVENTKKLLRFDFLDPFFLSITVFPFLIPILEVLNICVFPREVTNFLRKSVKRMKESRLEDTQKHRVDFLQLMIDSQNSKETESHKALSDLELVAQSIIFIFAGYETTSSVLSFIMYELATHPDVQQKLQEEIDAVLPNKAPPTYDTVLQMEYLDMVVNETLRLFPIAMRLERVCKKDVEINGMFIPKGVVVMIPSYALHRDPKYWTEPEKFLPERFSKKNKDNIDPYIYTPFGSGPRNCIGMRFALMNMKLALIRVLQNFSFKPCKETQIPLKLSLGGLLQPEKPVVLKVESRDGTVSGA
compound,measurement,setting,value
O=C(NNS(=O)(=O)c1ccccc1)c1cccnc1,AC50,[1],3.98 µM (inconclusive)
same,EC50,[2],> 112 µM (not active)
same,EC50,[3],> 112 µM (not active)
Nc1c(NC=O)c(=O)n(Cc2ccccc2)c(=O)n1Cc1ccccc1,EC50,[2],> 112 µM (not active)
same,EC50,[3],> 112 µM (not active)
COc1cc(/C=N/NC(=S)Nc2cccc(Cl)c2C)ccc1OCC(=O)N1CC(C)OC(C)C1 (stereo unspecified),EC50,[4],4 µM (active)
same,AC50,[5],17.5 µM (active)
O=C(Oc1cccc(OC(=O)c2ccco2)c1)c1ccco1,EC50,[4],19.8 µM (active)
same,AC50,[5],2.88 µM (active)
Cn1c(N)nc2c(nc(OCc3ccccc3)n2[C@@H]2O[C@H](CO)[C@@H](O)[C@@H]2O)c1=O,AC50,[6],0.00251 µM (inconclusive)
COc1ccc(NC(=O)CN2CCN(CC(=O)Nc3ccccc3Cl)CC2)cc1,AC50,[6],25.1 µM (inconclusive)
Cc1ccccc1N1C(=O)c2ccccc2C1Nc1cccnc1 (stereo unspecified),EC50,[4],> 380 µM (inactive)
same,AC50,[5],> 380 µM (inactive)
CCn1c(S)nnc1-c1ccc2ncccc2c1,AC50,[1],3.98 µM (inconclusive)
same,AC50,[7],20 µM (inconclusive)
CCCc1n[nH]c2c1C(c1ccc(OC(=O)N3CCOCC3)c(OC)c1)C(C#N)=C(N)O2 (stereo unspecified),EC50,[4],10 µM (active)
same,AC50,[5],32.2 µM (active)
COc1ccc(N2CCN(CCNC(=O)c3c(C)cc(=O)oc3C)CC2)cc1,AC50,[1],14.1 µM (inconclusive)
same,AC50,[6],25.1 µM (inconclusive)
CC(C)Oc1ccc(CNC(=O)c2ccc3c(c2)N(C)CCS3)cc1,EC50,[2],20.4 µM (active)
same,EC50,[3],> 112 µM (not active)
CCOc1ccc(N2C(=O)CC(Sc3nc4ccc(OCC)cc4s3)C2=O)cc1 (stereo unspecified),EC50,[2],> 112 µM (not active)
same,EC50,[3],> 112 µM (not active)
COc1ccc(NC(=O)N2CC[C@@]3(CCCN(C(C)=O)C3)C2)cc1,AC50,[6],39.8 µM (inconclusive)
CCOc1ccc(CN2CCN(CC3=Cc4cccc(OC)c4OC3)CC2CCO)cc1 (stereo unspecified),EC50,[4],> 380 µM (inactive)
same,AC50,[5],> 380 µM (inactive)
same,EC50,[8],0.303 µM (active)
same,EC50,[9],> 60 µM (not active)
COC(=O)c1[nH]c2cccc(OC)c2c1NC(=O)CN1CCOCC1,EC50,[2],> 112 µM (not active)
same,EC50,[3],> 112 µM (not active)
C=C(C)CC1(NC(C)c2ccccc2)CCCCC1 (stereo unspecified),EC50,[2],> 112 µM (not active)
same,EC50,[3],> 112 µM (not active)
CC1(c2ccccc2)NC(=O)N(CC(=O)N2CCN(S(=O)(=O)c3ccccc3[N+](=O)[O-])CC2)C1=O (stereo unspecified),EC50,[2],> 112 µM (not active)
same,EC50,[3],> 112 µM (not active)
COc1cc(C[C@H]2C(=O)OC[C@@H]2Cc2ccc(OC)c(OC)c2)ccc1O [ARCTIGENIN],AC50,[6],31.6 µM (inconclusive)
same,AC50,[7],0.00251 µM (inconclusive)

# Source: ChEMBL document CHEMBL1201862, “PubChem BioAssay data set” (2004)
